Paper PMC11649115, “In vitro safety evaluation of dopamine D3R antagonist, R-VK4-116, as a potential medication for the treatment of opioid use disorder” (PLOS ONE, 2024)

How the values were obtained:
human hepatocytes = assay: MTT assay, hepatocyte viability; type: cell-based
OAT3 = biological target: T1, OAT3 (Homo sapiens, UniProt Q8TCC7); assay: Transporter mediated assay (substrate/inhibitor), MDCK-II cells; type: in vitro ADME
T1 construct: expressed in transfected cells; host or cells: MDCK-II cells
T1 sequence (Q8TCC7 1-542): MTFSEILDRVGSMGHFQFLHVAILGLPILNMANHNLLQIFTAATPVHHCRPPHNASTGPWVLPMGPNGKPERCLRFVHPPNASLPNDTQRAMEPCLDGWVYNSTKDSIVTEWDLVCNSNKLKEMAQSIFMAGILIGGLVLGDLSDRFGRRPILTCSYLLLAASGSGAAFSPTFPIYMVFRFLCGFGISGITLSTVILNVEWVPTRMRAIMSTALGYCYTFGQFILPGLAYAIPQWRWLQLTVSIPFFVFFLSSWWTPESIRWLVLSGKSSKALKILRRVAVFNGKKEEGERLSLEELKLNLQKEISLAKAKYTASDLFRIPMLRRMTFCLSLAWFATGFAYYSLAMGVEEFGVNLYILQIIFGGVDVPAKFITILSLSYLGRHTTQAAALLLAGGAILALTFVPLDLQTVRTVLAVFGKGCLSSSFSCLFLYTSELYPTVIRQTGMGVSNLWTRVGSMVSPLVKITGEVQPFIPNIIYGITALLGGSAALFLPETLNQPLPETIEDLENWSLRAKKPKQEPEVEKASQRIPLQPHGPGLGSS
Procedure: The MDCK-II cells were treated to express the transporter of interest. The transport of each probe substrate was determined by radiometric detection (Fig 1 in S1 File). […] For the uptake assay, the net transporter-mediated uptake-rate (V) of the substrate by each SLC transporter was calculated as follows: Transporter–mediatedupdaterate(pmol/min/cm^2)=(Cellularaccumulationincellsexpressingthetransporter)−(Meancellularaccumulationincontrolcells)/Surfacearea×incubationtime
Fold of activity and percent inhibition were determined as follows: Foldofactivity=(Meanuptakerate)transporterexpressingcells/(Meanuptakerate)controlcells Percentinhibition=100−100×(Transport‐mediatedupdaterate)withinhibitor/(Transport‐mediatedupdaterate)vehiclecontrol

HepG2 cells = assay: Mitochondrial toxicity (MT) assay panel; type: cell-based
Procedure: The assay results were presented as % cell viability. […] After each incubation, the cells were harvested and lysed to test the MT assay panel. The Zalcitabine (positive control) was also included in this assay (Fig 3 in S1 File). The levels of Mitochondrial Oxidative Phosphorylation (OXPHOS) complex 1 (NADH dehydrogenase; ab178011, lot #GR 3339973–1), complex 3 (CytC reductase; ab124537, lot #GR3276896-3), complex 4 (CytC Oxidase; ab179880, lot #GR3273194-1), and complex 5 (ATP synthase; ab124539, lot #GR3267780-4) in the cell lysates were determined using respective indirect ELISA as per manufacturer’s instructions. The total ATP content of the cell lysates was determined using an ATP assay kit (ab83355, lot #GR3314128-2, Abcam, Cambridge, MA). The Caspase 3 content of the cell lysates was determined using the Caspase-3 assay kit (ab39401, lot #GR3322733-1, Abcam, Cambridge, MA). In addition, the total glutathione content was determined using the total glutathione (GSSG/GSH) assay kit (STA-312, lot #09100263, Oxiselect™, San Diego, CA). Using an Oxiselect™ ROS/RNS assay kit (STA-347, lot #7081343, Cell Biolabs Inc. San Diego, CA), the ROS/RNS content of the cell lysates was determined by fluorescence assay.

[1] = system: 403 non-mutant human kinases; conditions: screening concentration 1 µM, S-score with % Control <35
Procedure: Briefly, E. coli host derived from the BL21 strain were grown to log-phase and infected with kinase-tagged T7 phage and incubated with shaking at 32°C until lysis. The lysates were centrifuged and filtered to remove cell debris. The remaining kinases were produced in HEK-293 cells and subsequently tagged with DNA for qPCR detection. Streptavidin-coated magnetic beads were treated with biotinylated small molecule ligands to generate affinity resins for kinase assays. The liganded beads were blocked with excess biotin and washed to remove unbound ligand and to reduce non-specific phage binding. […] Selectivity Score (S-score) was a quantitative measure of compound selectivity. […] The binding constants (Kds) were also determined with a standard dose-response curve using the Hill equation and Levenberg-Marquardt algorithm [24, 25].

cardiovascular effects = conditions: rats, up to 25 mg/kg ref 9; cited from earlier work
[2] = Metabolic stability in liver microsomes; conditions: rat, pH 7.4
[3] = Metabolic stability in liver microsomes; conditions: dog, pH 7.4
CYP2C9 = CYP2C9 (Homo sapiens, UniProt P11712); assay: CYP inhibition in human liver microsomes; conditions: human liver microsomes
[4] = HepG2, 0.1, 1 and 10 μM, 7- and 14-day
[5] = heat-inactivated liver microsomes

Chain of CYP2C9 (P11712 whole entry): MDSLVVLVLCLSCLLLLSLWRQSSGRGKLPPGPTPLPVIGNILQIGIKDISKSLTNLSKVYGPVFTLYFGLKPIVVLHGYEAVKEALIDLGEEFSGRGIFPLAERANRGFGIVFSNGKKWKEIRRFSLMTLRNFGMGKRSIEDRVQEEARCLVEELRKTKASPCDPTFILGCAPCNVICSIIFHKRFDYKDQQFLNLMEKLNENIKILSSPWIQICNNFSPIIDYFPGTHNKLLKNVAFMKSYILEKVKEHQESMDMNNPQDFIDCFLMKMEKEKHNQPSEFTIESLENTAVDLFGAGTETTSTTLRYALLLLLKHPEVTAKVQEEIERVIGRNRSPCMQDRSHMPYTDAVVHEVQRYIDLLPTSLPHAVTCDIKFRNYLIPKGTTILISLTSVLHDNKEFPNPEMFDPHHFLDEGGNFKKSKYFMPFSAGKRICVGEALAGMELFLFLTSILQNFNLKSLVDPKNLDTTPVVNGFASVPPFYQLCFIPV

## CCc1cc(Cl)c(OC)c(N2CCN(CC(O)CCNC(=O)c3cc4ccccc4[nH]3)CC2)c1 (stereo not shown) [R-VK4-116, N-(4-(4-(3-chloro-5-ethyl-2-methoxyphenyl)piperazin-1-yl)-3-hydroxybutyl)-1H-indole-2-carboxamide]
Human hepatocytes; 0.01 µM
  Hepatocyte Viability, MTT Assay Upfront (Mean): 93
Human hepatocytes; 0.1 µM
  Hepatocyte Viability, MTT Assay Upfront (Mean): 105
Human hepatocytes; 1 µM
  Hepatocyte Viability, MTT Assay Upfront (Mean): 86
Human hepatocytes; 3 µM
  Hepatocyte Viability, MTT Assay Upfront (Mean): 91
Human hepatocytes; 10 μM
  Hepatocyte Viability, MTT Assay Upfront (Mean): 73
Human hepatocytes; 30 µM
  Hepatocyte Viability, MTT Assay Upfront (Mean): 73
Human hepatocytes; Lot 336, 0.01 µM
  Hepatocyte Viability, Concurrent MTT Assay (Mean): 96
Human hepatocytes; Lot 336, 0.10 µM
  Hepatocyte Viability, Concurrent MTT Assay (Mean): 90
Human hepatocytes; Lot 336, 1 µM
  Hepatocyte Viability, Concurrent MTT Assay (Mean): 91
Human hepatocytes; Lot 336, 3 µM
  Hepatocyte Viability, Concurrent MTT Assay (Mean): 80
Human hepatocytes; Lot 336, 5 µM
  Hepatocyte Viability, Concurrent MTT Assay (Mean): 75
Human hepatocytes; Lot 336, 10 µM
  Hepatocyte Viability, Concurrent MTT Assay (Mean): 73
Human hepatocytes; Lot 348B, 0.01 µM
  Hepatocyte Viability, Concurrent MTT Assay (Mean): 100
Human hepatocytes; Lot 348B, 0.10 µM
  Hepatocyte Viability, Concurrent MTT Assay (Mean): 101
Human hepatocytes; Lot 348B, 1 µM
  Hepatocyte Viability, Concurrent MTT Assay (Mean): 104
Human hepatocytes; Lot 348B, 3 µM
  Hepatocyte Viability, Concurrent MTT Assay (Mean): 96
Human hepatocytes; Lot 348B, 5 µM
  Hepatocyte Viability, Concurrent MTT Assay (Mean): 97
Human hepatocytes; Lot 348B, 10 µM
  Hepatocyte Viability, Concurrent MTT Assay (Mean): 102
Human hepatocytes; Lot 399, 0.01 µM
  Hepatocyte Viability, Concurrent MTT Assay (Mean): 107
Human hepatocytes; Lot 399, 0.10 µM
  Hepatocyte Viability, Concurrent MTT Assay (Mean): 104
Human hepatocytes; Lot 399, 1 µM
  Hepatocyte Viability, Concurrent MTT Assay (Mean): 95
Human hepatocytes; Lot 399, 3 µM
  Hepatocyte Viability, Concurrent MTT Assay (Mean): 88
Human hepatocytes; Lot 399, 5 µM
  Hepatocyte Viability, Concurrent MTT Assay (Mean): 86
Human hepatocytes; Lot 399, 10 µM
  Hepatocyte Viability, Concurrent MTT Assay (Mean): 91
Human hepatocytes; ≤ 10 μM
  hepatocyte viability, concurrent MTT assay: no decrease of hepatocyte viability
OAT3; OAT3, 1 μM, transporter cells vs control cells
  fold difference in mean uptake rate (substrate test): < 2 fold
OAT3; OAT3, 0.1% BSA, 10 μM
  Inhibition (%): no statistically significant inhibition
OAT3; human, polarized monolayer of MDCK-II cells expressing OAT3, OAT3, 0.1% BSA, 10 μM
  inhibition at 10 µM: -5.73 ± 8.06%
HepG2 cells; [4]
  OXPHOS complex 1, 3, 4, and 5 or total ATP levels: No significant decrease
  caspase 3, or total glutathione levels: no significant increase
HepG2 cells; HepG2, 7-days, all three concentrations (0.1, 1, 10 μM)
  increase in ROS/RNS levels compared with the solvent control: 10–35%
[1]
  Selectivity score: 0.012
Cardiovascular effects
  potentiation of the cardiovascular effects of cocaine or oxycodone: did not potentiate
[2]; [5]
  remaining at 0 h, 1 μM: 100%
  remaining at 0 h, 10 μM: 100%
  remaining at 2 h, 1 μM: 94.9%
  remaining at 2 h, 10 μM: 95.4%
[2]; liver microsomes
  remaining at 0 h, 1 μM: 100%
  remaining at 0 h, 10 μM: 100%
  remaining at 0.5 h, 1 μM: 79.4%
  remaining at 0.5 h, 10 μM: 87.1%
  remaining at 1 h, 1 μM: 56.8%
  remaining at 1 h, 10 μM: 79.7%
  remaining at 1.5 h, 1 μM: 45.5%
  remaining at 1.5 h, 10 μM: 73.3%
  remaining at 2 h, 1 μM: 37.5%
  remaining at 2 h, 10 μM: 69.4%
[3]; [5]
  remaining at 0 h, 1 μM: 100%
  remaining at 0 h, 10 μM: 100%
  remaining at 2 h, 1 μM: 90.7%
  remaining at 2 h, 10 μM: 90.6%
[3]; liver microsomes
  remaining at 0 h, 1 μM: 100%
  remaining at 0 h, 10 μM: 100%
  remaining at 0.5 h, 1 μM: 44.6%
  remaining at 0.5 h, 10 μM: 74.3%
  remaining at 1 h, 1 μM: 22.5%
  remaining at 1 h, 10 μM: 64.5%
  remaining at 1.5 h, 1 μM: 22.3%
  remaining at 1.5 h, 10 μM: 55.6%
  remaining at 2 h, 1 μM: 19.7%
  remaining at 2 h, 10 μM: 49.9%
CYP2C9; up to 100 μM
  CYP2C9 inhibition: did not inhibit CYP significantly
CYP2C9; human, probe diclofenac
  activity at 20 min, 0.1 µM: 89.5 ± 9.2%
  activity at 20 min, 0.3 µM: 79 ± 2.7%
  activity at 20 min, 1 µM: 80.9 ± 2.2%
  activity at 20 min, 3 µM: 92.3 ± 10.1%
  activity at 20 min, 10 µM: 91.5 ± 7.3%
  activity at 20 min, 30 µM: 80.9 ± 0.9%
  activity at 20 min, 60 µM: 81.8 ± 3.1%
  activity at 20 min, 100 µM: 93.4 ± 8.1%
